Structures can show the parent of a compound that is named as a salt.
molecular target: T1, human 5-HT1A receptor (Homo sapiens, UniProt P08908); assay: Displacement of [3H] 8-OHDPAT from the 5-HT1A receptor in transfected CHO cells; format: binding; details: displacement of [3H] 8-OHDPAT; CHO cells stably transfected with the human 5-HT1A receptor; read-out: 5-HT1A Affinity (IC50)
T1 construct: expressed in transfected cells; host or cells: CHO cells (stably transfected)
T1 sequence (P08908 1-422): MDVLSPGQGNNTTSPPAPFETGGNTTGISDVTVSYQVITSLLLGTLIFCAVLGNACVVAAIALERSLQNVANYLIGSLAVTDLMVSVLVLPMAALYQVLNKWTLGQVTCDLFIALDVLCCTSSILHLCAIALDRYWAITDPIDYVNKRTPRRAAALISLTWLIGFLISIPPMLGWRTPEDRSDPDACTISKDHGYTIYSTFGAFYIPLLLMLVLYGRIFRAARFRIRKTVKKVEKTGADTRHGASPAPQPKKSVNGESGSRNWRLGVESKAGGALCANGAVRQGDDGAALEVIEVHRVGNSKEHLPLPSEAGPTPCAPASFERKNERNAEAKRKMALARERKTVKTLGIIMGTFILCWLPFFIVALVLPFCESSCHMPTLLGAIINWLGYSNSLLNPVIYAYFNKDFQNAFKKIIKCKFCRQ
Excerpt: Affinity for the serotonin 5-HT1A receptor was established by assaying the test compound's ability to displace [^3H] 8-OHDPAT from its binding site on the receptor complex in CHO cells stably transfected with the human 5-HT1A receptor following the procedure described by J. Dunlop, Y. Zhang, D. Smith and L. Schechter (Eur. J. Pharmacol., submitted; variation of a procedure described by J. Zgombick et al., Naunyn-Schmiedeberg's Arch. Pharmacol., 354, 226-236 (1996)).

| IC50 [nM] | SMILES |
| --- | --- |
| 1.23 | COc1ccccc1N1CCN(C[C@@H](CC2CCCCC2)NC(=O)C2(C)CCCCC2)CC1 [Example 2, 1-Methyl-cyclohexanecarboxylic Acid of {(1R)-1-Cyclohexylmethyl-2-[4-(2-methoxyphenyl)-piperazin-1-yl]-ethyl}-amide] |
| 1.46 | COc1ccccc1N1CCN(C[C@@H](CC2CCCCC2)N(C)C(=O)C2CCCCC2)CC1 [Example 3, Cyclohexanecarboxylic Acid {(1R)-1-Cyclohexylmethyl-2-[4-(2-methoxyphenyl)-piperazin-1-yl]-ethyl}-methyl-amide] |
| 32.7 | CN(C(=O)C1(C)CCCCC1)[C@H](CC1CCCCC1)CN1CCN(c2cccc3[nH]ccc23)CC1 [Example 8] |
| 1.69 | O=C(N[C@H](CC1CCCCC1)CN1CCN(c2nccc3ccccc23)CC1)C1CCCCC1 [Example 14, Cyclohexanecarboxylic Acid {(1R)-1-Cyclohexylmethyl-2-[4-(isoquinolin-1-yl)-piperazin-1-yl]-ethyl}-amide] |
| 5 | COc1ccccc1C1CCN(C[C@@H](CC2CCCCC2)N(C)C(=O)C(C)(C)C)CC1 [Example 20, N-{(1R)-1-Cyclohexylmethyl-2-[4-(2-methoxyphenyl)-piperidin-1-yl]-ethyl}-2,2,N-trimethyl-propionamide] |

molecular target: T1, human 5-HT1A receptor; assay: Antagonist activity: antagonism of 8-OHDPAT inhibition of forskolin-stimulated cAMP accumulation in transfected CHO cells; format: cell-based; details: CHO cells with human 5-HT1A receptor
Excerpt: Methods, 40, 47-55 (1998); variation of a procedure described by J. Zgombick et al., Naunyn-Schmiedeberg's Arch. Pharmacol., 354, 226-236 (1996)].

| IC50 [nM] | SMILES |
| --- | --- |
| 14.6 | COc1ccccc1N1CCN(C[C@@H](CC2CCCCC2)NC(=O)C2(C)CCCCC2)CC1 [Example 2, 1-Methyl-cyclohexanecarboxylic Acid of {(1R)-1-Cyclohexylmethyl-2-[4-(2-methoxyphenyl)-piperazin-1-yl]-ethyl}-amide] |
| 4 | COc1ccccc1N1CCN(C[C@@H](CC2CCCCC2)N(C)C(=O)C2CCCCC2)CC1 [Example 3, Cyclohexanecarboxylic Acid {(1R)-1-Cyclohexylmethyl-2-[4-(2-methoxyphenyl)-piperazin-1-yl]-ethyl}-methyl-amide] |

test system: not given; assay: not given; details: not given

| SMILES | melting point [°C] |
| --- | --- |
| COc1ccccc1N1CCN(C[C@@H](CC2CCCCC2)NC(=O)C2(C)CCCCC2)CC1 (as salt: hydrochloride) (hydrate or solvate) [Example 2, 1-Methyl-cyclohexanecarboxylic Acid of {(1R)-1-Cyclohexylmethyl-2-[4-(2-methoxyphenyl)-piperazin-1-yl]-ethyl}-amide] | 119 to 121 |
| CN(C(=O)C1CCCCC1)[C@H](CC1CCCCC1)CN1CCN(c2cccc3c2OCCO3)CC1 (as salt: hydrochloride) (hydrate or solvate) [Example 5] | 147 to 148 |
| CN(C(=O)C1CCCCC1)[C@H](CC1CCCCC1)CN1CCN(c2cccc3[nH]ccc23)CC1 (as salt: hydrochloride) (hydrate or solvate) [Example 7, Cyclohexanecarboxylic Acid {(1R)-1-Cyclohexylmethyl-2-[4-(1H-indol-4-yl)-piperazin-1-yl]-ethyl}-methyl-amide] | > 260 |
| COc1ccccc1N1CCN(C[C@@H](CC2CCCCC2)NC=O)CC1 (as salt: hydrochloride) (hydrate or solvate) [Example 9, N-{(1R)-1-Cyclohexylmethyl-2-[4-(2-methoxyphenyl)-piperazin-1-yl]-ethyl}-formamide] | 157 to 159 |
| COc1ccccc1C1=CCN(C[C@@H](CC2CCCCC2)NC(=O)C2(C)CCCCC2)CC1 (as salt: hydrochloride) (hydrate or solvate) [Example 21, 1-Methyl-cyclohexanecarboxylic Acid {(1R)-1-Cyclohexylmethyl-2-[4-(2-methoxyphenyl)-3,6-dihydro-2H-pyridin-1-yl]-ethyl}-amide] | 93 to 95 |
| COc1ccccc1N1CCN(C[C@@H](CC2CCCCC2)NC(=O)C2CCCCC2)CC1 (as salt: hydrochloride) [Example 1, Cyclohexanecarboxylic Acid {(1R)-1-Cyclohexylmethyl-2-[4-(2-methoxyphenyl)-piperazin-1-yl]-ethyl}-amide] | 121 to 131 |
| COc1ccccc1N1CCN(C[C@@H](CC2CCCCC2)N(C)C(=O)C2CCCCC2)CC1 (as salt: hydrochloride) [Example 3, Cyclohexanecarboxylic Acid {(1R)-1-Cyclohexylmethyl-2-[4-(2-methoxyphenyl)-piperazin-1-yl]-ethyl}-methyl-amide] | 222 to 224 |
| COc1ccccc1N1CCN(C[C@@H](CC2CCCCC2)N(C)C(=O)C2(C)CCCCC2)CC1 (as salt: hydrochloride) [Example 4, 1-Methyl-cyclohexanecarboxylic Acid {(1R)-1-Cyclohexylmethyl-2-[4-(2-methoxyphenyl)-piperazin-1-yl]-ethyl}-methyl-amide] | 208 to 210 |
| CN(C(=O)C1(C)CCCCC1)[C@H](CC1CCCCC1)CN1CCN(c2cccc3c2OCCO3)CC1 (as salt: hydrochloride) [Example 6, 1-Methyl-cyclohexanecarboxylic Acid {(1R)-1-Cyclohexylmethyl-2-[4-(2,3-dihydro-benzo[1,4]dioxin-5-yl)-piperazin-1-yl]-ethyl}-methyl-amide] | 219 to 220 |
| CN(C(=O)C1(C)CCCCC1)[C@H](CC1CCCCC1)CN1CCN(c2cccc3[nH]ccc23)CC1 (as salt: hydrochloride) [Example 8] | 253 to 254 |
| O=C(N[C@H](CC1CCCCC1)CN1CCN(c2ncccn2)CC1)C1CCCCC1 (as salt: hydrochloride) [Example 10, Cyclohexanecarboxylic Acid {(1R)-1-Cyclohexylmethyl-2-[4-(pyrimidin-2-yl)-piperazin-1-yl]-ethyl}-amide] | 121 to 123 |
| O=C(N[C@H](CC1CCCCC1)CN1CCN(c2ncccn2)CC1)C1CCC1 (as salt: hydrochloride) [Example 11, Cyclobutane Carboxylic Acid {(1R)-1-Cyclohexylmethyl-2-[4-(pyrimidin-2-yl)-piperazin-1-yl]-ethyl}-amide] | 112 to 114 |
| COc1cccc(N2CCN(C[C@H](CC3CCCCC3)NC(=O)C3CCCCC3)CC2)n1 (as salt: hydrochloride) [Example 12, Cyclohexane Carboxylic Acid {(1S)-1-Cyclohexylmethyl-2-[4-(6methoxypyridin-2-yl)-piperazin-1-yl]-ethyl}-amide] | 107 to 109 |
| O=C(N[C@H](CC1CCCCC1)CN1CCN(c2nc3ccccc3s2)CC1)C1CCCCC1 (as salt: hydrochloride) [Example 13, Cyclohexanecarboxylic Acid {(1R)-1-Cyclohexylmethyl-2-[4-(benzothiazol-2-yl)-piperazin-1-yl]-ethyl}-amide] | 229 to 232 |

Second part, the compound after the results:

| melting point [°C] | SMILES |
| --- | --- |
| 100 to 103 | COc1ccccc1C1CCN(C[C@@H](CC2CCCCC2)NC(=O)C2CCCCC2)CC1 (as salt: hydrochloride) (hydrate or solvate) [Example 15, Cyclohexanecarboxylic Acid {(1R)-1-Cyclohexylmethyl-2-[4-(2-methoxyphenyl)-piperidin-1-yl]-ethyl}-amide] |
| 208 to 210 | COc1ccccc1C1CCN(C[C@@H](CC2CCCCC2)NC(=O)C2(C)CCCCC2)CC1 (as salt: hydrochloride) (hydrate or solvate) [Example 16, 1-Methyl-cyclohexanecarboxylic acid {(1R)-1-cyclohexylmethyl-2-[4-(2-methoxyphenyl)-piperidin-1-yl]-ethyl}-amide] |
| 135 to 137 | COc1ccccc1C1CCN(C[C@@H](CC2CCCCC2)N(C)C(=O)C2CCCCC2)CC1 (as salt: hydrochloride) (hydrate or solvate) [Example 17, Cyclohexanecarboxylic Acid {(1R)-1-Cyclohexylmethyl-2-[4-(2-methoxyphenyl)-piperidin-1-yl]-ethyl}-methyl-amide] |
| 169 to 171 | COc1ccccc1C1CCN(C[C@@H](CC2CCCCC2)N(C)C(=O)C2(C)CCCCC2)CC1 (as salt: hydrochloride) (hydrate or solvate) [Example 18, 1-Methyl-cyclohexanecarboxylic Acid {(1R)-1-Cyclohexylmethyl-2-[4-(2-methoxypheniyl)-piperidin-1-yl]-ethyl}-methyl-amide] |
| 97 to 99 | COc1ccccc1C1CCN(C[C@@H](CC2CCCCC2)NC(=O)C(C)(C)C)CC1 (as salt: hydrochloride) (hydrate or solvate) [Example 19, N-{(1R)-1-Cyclohexylmethyl-2-[4-(2-methoxyphenyl)-piperidin-1-yl]-ethyl}-2,2-dimethyl-propionamide] |
| 233 to 236 | COc1ccccc1C1CCN(C[C@@H](CC2CCCCC2)N(C)C(=O)C(C)(C)C)CC1 (as salt: hydrochloride) (hydrate or solvate) [Example 20, N-{(1R)-1-Cyclohexylmethyl-2-[4-(2-methoxyphenyl)-piperidin-1-yl]-ethyl}-2,2,N-trimethyl-propionamide] |
| 155 to 159 | O=C(N[C@H](CC1CCCCC1)CN1CCN(c2nccc3ccccc23)CC1)C1CCCCC1 (as salt: hydrochloride) [Example 14, Cyclohexanecarboxylic Acid {(1R)-1-Cyclohexylmethyl-2-[4-(isoquinolin-1-yl)-piperazin-1-yl]-ethyl}-amide] |
